Values quoted from earlier work as cited in patent US20090017120A1, “Phase stable lecithin organogel composition” (Humco Holding Group, Inc., priority 2007, published 2009).

Conditions: 20% wt/vol pluronic gels, pH 7, 20° C.

- time to 10% indomethacin degradation: 2.7 years
Compound: COc1ccc2c(c1)c(CC(=O)O)c(C)n2C(=O)c1ccc(Cl)cc1 [indomethacin]
